Test results published in US8956445B2, “High stability diionic liquid salts” (Sigma-Aldrich Co., priority 2004, dated 2015).
Read-outs that look alike come from different tables or passages of the source.

Key:
[1] = Surface tension (DuNuoy Tensiometer); format: physicochemical; conditions: room temperature (23° C.)
[2] = Refractive index (Abbe-3L refractometer); format: physicochemical; conditions: 23° C.
Procedure: (§1) The densities of the ionic liquids or, more correctly, […] (used synonymously except as indicated otherwise explicitly or by context) was determined at 23° C. by placing 2.0 mL of the ionic liquid in a 2.0 mL volumetric tube and weighing by difference. The melting points of the ionic liquids were determined using a Perkin Elmer Pyris 1 Differential Scanning calorimeter (Boston, Mass.). Typical methods involved using a 10° C./min temperature ramp to determine and identify the first and second order thermal transitions. […] For solid compounds, the melting points were verified using a capillary melting point apparatus. Refractive index measurements were conducted at 23° C. using a Bausch & Lomb Abbe-3L refractometer.

[3] = Density (2.0 mL volumetric tube, weighing by difference); format: physicochemical; conditions: 23° C.
Procedure: as §1

[4] = Solvation interaction parameters by inverse gas-liquid chromatography (Abraham solvation model); format: physicochemical
Procedure: The preparation of the capillary columns for inverse gas-liquid chromatographic analysis was performed using a previously described procedure.^31 All capillary columns had efficiencies between 2100 to 2500 plates/meter. Characterization of the capillary columns and probe molecule descriptions are listed in supplemental information. Multiple linear regression analysis (MLRA) and statistical calculations were performed using the program Analyse-it (Microsoft, USA).
We have previously reported that the Abraham solvation model, a linear free energy approach that utilizes inverse gas-liquid chromatography to describe the solvation properties of a liquid, can be used to characterize room temperature ionic liquids.^31 Described by equation 1, the model provides the so-called “interaction parameters” (r, s, a, b, l) by using multiple linear regression analysis to fit the retention factor (k, determined chromatographically) to the solute descriptors (R2, π2^H, α2^H, β2^H, log L^16) for a wide variety of probe solute molecules. […] The solvation properties of four dicationic ionic liquids (see Table 4) were evaluated and the interaction parameters compared to those obtained for their traditional monocationic analogues 1-butyl-3-methylimidazolium and 1-butyl-1-methylpyrrolidinium ionic liquids.
Previously we characterized a large number of room temperature ionic liquids in terms of multiple solvation interactions using the solvation parameter model, shown in equation 3.^44 log k=c+rR2+sπ2^H+aα2^H+bβ2^H+l log L^16 [3] This approach utilizes inverse gas-liquid chromatography and allows the use of a large number of probe molecules to deconvolute solute retention in terms of the type and magnitude of individual solvation interactions. The solute descriptors (R2, π2^H, α2^H, β2^H, log L^16) from Equation 3 are obtained from the literature for many probe molecules containing a variety of functional groups.^45 The retention factor is determined chromatographically. The solute descriptors and retention factors are subjected to multiple linear regression analysis to obtain the interaction parameter coefficients (r, s, a, b, l), which ultimately characterize the stationary phase: r is the ability of the diionic liquid containing-stationary phase to interact with π and n electrons of the solute, s is a measure of the dipolarity/polarizability of the diionic liquid containing-stationary phase, a defines the diionic liquid containing-stationary phase hydrogen bond basicity, b is a measure of the hydrogen bond acidity, and/refers to the ability of the diionic liquid containing-stationary phase to separate adjacent members of a homologous series.^46
(§2) Test solutes used to determine interaction parameters and solvation thermodynamics were dissolved in dichloromethane. A Hewlett-Packard model 5890 gas chromatograph and a Hewlett-Packard 6890 series integrator were used for all separations. Split injection and flame ionization detection were utilized with injection and detection temperatures of 250° C. Helium was used as the carrier gas with a column inlet pressure of 3.1 psi and flow rate of 1.0 mL/min. Methane was used to determine the dead volume of the column. Multiple linear regression analysis and statistical calculations were performed using the program Analyze-it (Microsoft).

[5] = Solvation thermodynamics of probe molecules (van't Hoff plots, GC); format: physicochemical
Source text: Solvation thermodynamics can be determined chromatographically by recognizing that the Gibbs free energy change, ΔG°, of a solute between the mobile phase and the stationary phase can be described by equation 1:
[formula] where k is the solute retention factor and Φ is the column phase ratio. An expression shown in equation 2 can then be derived and illustrates the dependence of enthalpy, ΔH°, and entropy, ΔS°, on the change of the retention factor with temperature:
[formula] A van't Hoff plot of ln k versus 1/T provides the entropy (intercept) and enthalpy (slope) and describes a solute's transfer from the gas phase to the ionic liquid stationary phase. In this work, the solvation thermodynamics were determined for seven different probe molecules, listed in Table D, on two cross-linked ionic liquid phases and one ionic liquid stationary phase. […] For each probe molecule on each stationary phase, three separate van't Hoff plots were constructed so that changes in the probe molecule retention factor could be used to provide an error for each thermodynamic parameter. The probe molecule retention factors were determined at six different temperatures to obtain the highest possible correlation coefficient (>0.989).
as §2

[6] = probe 2-Chloroaniline, 40-100° C.
[7] = probe Ethyl Phenyl Ether, 35-75° C.

SMILES: Cn1cc[n+](CCC[n+]2ccn(C)c2)c1.O=S(=O)([N-]S(=O)(=O)C(F)(F)F)C(F)(F)F.O=S(=O)([N-]S(=O)(=O)C(F)(F)F)C(F)(F)F [C3(mim)2-NTf2, 1,3-di(3-methylimidazolium)propane di-bis[(trifluoromethyl)sulfonyl]imidate]
- Surface Tension [1]: 44.7 dynes/cm
- Refractive Index [2]: 1.440
- Density [3]: 1.61 g/mL
- Miscibility with Heptane: Immiscible
- Miscibility with Water: Immiscible

SMILES: Cn1cc[n+](CCCCCC[n+]2ccn(C)c2)c1.O=S(=O)([N-]S(=O)(=O)C(F)(F)F)C(F)(F)F.O=S(=O)([N-]S(=O)(=O)C(F)(F)F)C(F)(F)F [C6(mim)2-NTf2, 1,6-di(3-methylimidazolium)hexane di-bis[(trifluoromethyl)sulfonyl]imida]
- Surface Tension [1]: 44.2 dynes/cm
- Refractive Index [2]: 1.441
- Density [3]: 1.52 g/mL
- Miscibility with Heptane: Immiscible
- Miscibility with Water: Immiscible

SMILES: CCCCn1cc[n+](CCCCCCCCC[n+]2ccn(CCCC)c2)c1.F[B-](F)(F)F.F[B-](F)(F)F [C9(bim)2-BF4, 1,9-di(3-butylimidazolium)nonane di-tetrafluoroborate]
- Surface Tension [1]: 50.4 dynes/cm
- Refractive Index [2]: 1.503
- Density [3]: 1.20 g/mL
- Miscibility with Heptane: Immiscible
- Miscibility with Water: Partially
- Miscibility with Water (listed as 19): solubility of the salt in water decreases

SMILES: CCCCn1cc[n+](CCCCCCCCC[n+]2ccn(CCCC)c2)c1.O=S(=O)([N-]S(=O)(=O)C(F)(F)F)C(F)(F)F.O=S(=O)([N-]S(=O)(=O)C(F)(F)F)C(F)(F)F [C9(bim)2-NTf2, 1,9-di(3-butylimidazolium)nonane di-bis[(trifluoromethyl)sulfonyl]imidate]
- Surface Tension [1]: 38.0 dynes/cm
- Refractive Index [2]: 1.446
- Density [3]: 1.35 g/mL
- Miscibility with Heptane: Immiscible
- Miscibility with Water: Immiscible

SMILES: CCCCn1cc[n+](CCCCCCCCC[n+]2ccn(CCCC)c2)c1.F[P-](F)(F)(F)(F)F.F[P-](F)(F)(F)(F)F [C9(bim)2-PF6, 1,9-di(3-butylimidazolium)nonane di-hexafluorophosphate]
- Surface Tension [1]: 48.0 dynes/cm
- Refractive Index [2]: 1.439
- Density [3]: 1.30 g/mL
- Miscibility with Heptane: Immiscible
- Miscibility with Water: Immiscible

SMILES: Cc1n(C)cc[n+]1CCCCCCCCC[n+]1ccn(C)c1C.F[B-](F)(F)F.F[B-](F)(F)F [C9(m2im)2-BF4, 1,9-di(2,3-dimethylimidazolium)nonane di-tetrafluoroborate]
- Surface Tension [1]: 58.1 dynes/cm
- Refractive Index [2]: 1.456
- Density [3]: 1.31 g/mL
- Miscibility with Heptane: Immiscible
- Miscibility with Water: Miscible

SMILES: Cc1n(C)cc[n+]1CCCCCCCCC[n+]1ccn(C)c1C.O=S(=O)([N-]S(=O)(=O)C(F)(F)F)C(F)(F)F.O=S(=O)([N-]S(=O)(=O)C(F)(F)F)C(F)(F)F [C9(m2im)2-NTf2, 1,9-di(2,3-dimethylimidazolium)nonane di-bis[(trifluoromethyl)sulfonyl]imidate]
- Surface Tension [1]: 43.5 dynes/cm
- Refractive Index [2]: 1.448
- Density [3]: 1.47 g/mL
- Miscibility with Heptane: Immiscible
- Miscibility with Water: Immiscible

SMILES: Cn1cc[n+](CCCCCCCCC[n+]2ccn(C)c2)c1.F[B-](F)(F)F.F[B-](F)(F)F [C9(mim)2-BF4, 1,9-di(3-methylimidazolium)nonane di-tetrafluoroborate]
- Surface Tension [1]: 61.2 dynes/cm
- Refractive Index [2]: 1.469
- Density [3]: 1.33 g/mL
- Miscibility with Heptane: Immiscible
- Miscibility with Water: Miscible

SMILES: F[P-](F)(F)(F)(F)F.F[P-](F)(F)(F)(F)F.c1ccc(Cn2cc[n+](CCCCCCCCCCCC[n+]3ccn(Cc4ccccc4)c3)c2)cc1 [C12(benzim)2-PF6, 1,12-di(3-benzylimidazolium)dodecane di-hexafluorophosphate]
- Surface Tension [1]: 47.4 dynes/cm
- Refractive Index [2]: 1.484
- Density [3]: 1.27 g/mL
- Miscibility with Heptane: Immiscible
- Miscibility with Water: Immiscible

SMILES: Cn1cc[n+](CCCCCCCCCCCC[n+]2ccn(C)c2)c1.F[B-](F)(F)F.F[B-](F)(F)F [C12(mim)2-BF4, 1,12-di(3-methylimidazolium)dodecane di-tetrafluoroborate]
- Surface Tension [1]: 55.8 dynes/cm
- Refractive Index [2]: 1.503
- Density [3]: 1.26 g/mL
- Miscibility with Heptane: Immiscible
- Miscibility with Water: Partially
- Miscibility with Water (listed as 15): solubility of the salt in water decreases

SMILES: Cn1cc[n+](CCCCCCCCCCCC[n+]2ccn(C)c2)c1.O=S(=O)([N-]S(=O)(=O)C(F)(F)F)C(F)(F)F.O=S(=O)([N-]S(=O)(=O)C(F)(F)F)C(F)(F)F [C12(mim)2-NTf2, 1,12-di(3-methylimidazolium)dodecane di-bis[(trifluoromethyl)sulfonyl]imidate]
- Surface Tension [1]: 42.3 dynes/cm
- Refractive Index [2]: 1.443
- Density [3]: 1.40 g/mL
- Miscibility with Heptane: Immiscible
- Miscibility with Water: Immiscible

SMILES: CCCCCCCCC[n+]1ccn(C)c1.O=S(=O)([N-]S(=O)(=O)C(F)(F)F)C(F)(F)F [nmim-NTf2]
- a (hydrogen bond basicity) ([4]; 40° C.): 1.91
- b (hydrogen bond acidity) ([4]; 40° C.): 0.36
- c (interaction parameter table, constant) ([4]; 40° C.): −2.98
- l (dispersion forces) ([4]; 40° C.): 0.75
- r (interaction via nonbonding and π-electrons) ([4]; 40° C.): 0
- s (dipolarity/polarizability) ([4]; 40° C.): 1.62
- a (hydrogen bond basicity) ([4]; 70° C.): 1.57
- b (hydrogen bond acidity) ([4]; 70° C.): 0.18
- c (interaction parameter table, constant) ([4]; 70° C.): −3.05
- l (dispersion forces) ([4]; 70° C.): 0.63
- r (interaction via nonbonding and π-electrons) ([4]; 70° C.): 0
- s (dipolarity/polarizability) ([4]; 70° C.): 1.54
- a (hydrogen bond basicity) ([4]; 100° C.): 1.43
- b (hydrogen bond acidity) ([4]; 100° C.): 0.12
- c (interaction parameter table, constant) ([4]; 100° C.): −3.47
- l (dispersion forces) ([4]; 100° C.): 0.60
- r (interaction via nonbonding and π-electrons) ([4]; 100° C.): 0
- s (dipolarity/polarizability) ([4]; 100° C.): 1.52
- Refractive Index [2]: 1.434
- Density [3]: 1.30 g/mL
- ΔHAV ([5]; probe 1-Octanol, 35-75° C.): -59277 J/mol
- ΔSAV ([5]; probe 1-Octanol, 35-75° C.): −151 J/mol*K
- ΔG ([5]; probe 1-Octanol, 50° C.): -10481 J/mol
- ΔHAV [5, 6]: -57652 J/mol
- ΔSAV [5, 6]: −134 J/mol*K
- ΔG ([5]; probe 2-Chloroaniline, 70° C.): -11670 J/mol
- ΔHAV ([5]; probe Decane, 35-75° C.): -45389 J/mol
- ΔSAV ([5]; probe Decane, 35-75° C.): −127 J/mol*K
- ΔG ([5]; probe Decane, 50° C.): -4349 J/mol
- ΔHAV [5, 7]: -46521 J/mol
- ΔSAV [5, 7]: −121 J/mol*K
- ΔG ([5]; probe Ethyl Phenyl Ether, 50° C.): -7420 J/mol
- ΔHAV ([5]; probe Fluorophenol, 40-100° C.): -48104 J/mol
- ΔSAV ([5]; probe Fluorophenol, 40-100° C.): −121 J/mol*K
- ΔG ([5]; probe Fluorophenol, 70° C.): -6583 J/mol
- ΔHAV ([5]; probe Naphthalene, 40-100° C.): -53789 J/mol
- ΔSAV ([5]; probe Naphthalene, 40-100° C.): −127 J/mol*K
- ΔG ([5]; probe Naphthalene, 70° C.): -10209 J/mol
- ΔHAV ([5]; probe Nitropropane, 27-50° C.): -39010 J/mol
- ΔSAV ([5]; probe Nitropropane, 27-50° C.): −109 J/mol*K
- ΔG ([5]; probe Nitropropane, 35° C.): -5422 J/mol
